Source: patent US6492353B1, “1,3-dihydroxy-20,20-cycloalkyl-vitamin D3analogs” (Syntex LLC, priority 1997, dated 2002)
Several values for one entry are separate records, joined by “and”; a condition that tells them apart may be missing. Identical values can stand only once.

Legend:
MCF-7 cells = assay: Cell proliferation assay in MCF-7 breast cancer cells; format: cell-based; details: Homo sapiens, MCF7, 168 h; MCF-7, 7 days of culture with analog, Coulter count; read-out: IC50, concentration causing 50% reduction in MCF-7 cell growth in culture
Procedure: MCF-7 cells are human mammary carcinoma cells that are positive for estrogen receptors. The potential activity of vitamin D3 analogs against breast cancer was assessed from inhibition of proliferation of MCF-7 cells in culture.
MCF-7 cells were plated at 9000 cells/well in 24-well plates and incubated at 37° C. in 5% CO2/95% air in Dulbecco's Modified Eagle Medium containing 10% fetal bovine serum, 700 nM insulin, 2 mM glutarnine, 0.1 mM MEM non-essential amino acids and 1 mM sodium pyruvate. Stock solutions of vitamin D3 analogs were prepared at a concentration of 10 mM in absolute ethanol and stored at −20° C. under argon. Four days after plating, the number of MCF-7 were counted by removing the medium in 8 wells, rinsing the cells with 0.5 ml PBS without Ca/Mg and then incubating the cells with 0.3 ml of trypsin-EDTA. After 15 min., the trypsinization was stopped by adding 0.3 ml of medium. 0.2 ml aliquot was transferred from each well into dilu-vials containing 10 ml isoton and the number of cells were counted on Coulter Counter™ (Coulter, Miami, Fla.).
MCF-7 cells in the remaining wells were refed with either control medium or medium containing varying concentrations of the vitamin D3 analog. After a further 7 days of culture, the number of MCF-7 cells in each well was assessed by removing the medium, rinsing the cells with 0.5 ml PBS without Ca/Mg and then incubating the cells with 0.5 ml of trypsin-EDTA for 15 min. The trypsinization was stopped by adding 0.5 ml of medium and 0.1 ml aliquot from each well was transferred into dilu-vials containing 10 ml isoton and the number of cells were counted on Coulter Counter™.

ZR-75 cells = assay: Cell proliferation assay in ZR-75 breast cancer cells (MTT); format: cell-based; details: Homo sapiens, ZR75, 240 h, ZR-75, 10 days of culture with analog, read-out: IC50, concentration corresponding to half-maximal reduction in 570 nm absorbance
Procedure: ZR-75 cells are human mammary carcinoma cells that are positive for estrogen receptors. The potential activity of vitamin D3 analogs against breast cancer was assessed from inhibition of proliferation of ZR-75 cells in culture.
ZR-75 cells were plated at 12,500 cells/well in 24-well plates and incubated at 37° C. in 5% CO2/95% air in RPMI medium containing 10% fetal bovine serum and 2 mM L-glutamine. Stock solutions of vitamin D3 analogs were prepared at a concentration of 10 mM in absolute ethanol and stored at −20° C. under argon. One day after plating, ZR-75 cells were refed with either control medium or medium containing varying concentrations of the vitamin D3 analog.

[1] = test system: ovariectomized (Ovx) rats; assay: Bone anabolism in the ovariectomized rat; format: in vivo; set-up: Urine Calcium/Creatinine (6th Week): unit not given here; details: for Whole Femur BMD: weeks 3-6 post-ovariectomy
Excerpt: Three month old rats are ovariectomized (Ovx) and administered either 1,25-dihydroxy vitamin D3 (vit. D in Table) or one of the compounds of the present invention once a day by mouth starting at 3 weeks post-ovariectomy and continuing until final sacrifice at 6 weeks postovariectomy. Control groups, both sham (rats that were not ovariectomized) and Ovx, received vehicle only. Blood and urine samples were collected twice, at 4 weeks post-ovariectomy and again at the 6 week mark and the amount of serum and urine calcium was determined. The final femoral calcium was determined upon sacrifice 6 weeks post-ovariectomy.
The bone mineral density of the right femur was determined by using a High Resolution Software Package on a QDR-1000W Bone Densitometer™ (Hologic, Walthan, Mass.). The animals were scanned by placing them on a scanning block in a supine position such that the right leg was perpendicular to the main body and the tibia was perpendicular to the femur. The increase in the bone mineral density and the amount of calcium in the urine and the serum for some of the compounds of this invention in this assay are given in the table below: […]

[2] = test system: rats with secondary hyperparathyroidism due to renal failure; assay: Secondary hyperparathyroidism in the rat renal insufficiency model (7/8 nephrectomy); format: in vivo; details: 7/8 nephrectomized rats, 0.1 μg/kg/day oral, seven days; for PTH T=1-T=0: change in serum PTH; for Final Ca Levels: serum calcium
Procedure: Female sprague Dawley rats were anesthetized, their right kidney removed and 2-3 branches of the left renal artery were ligated to achieve 7/8 nephrectomy. They were placed on a high phosphorous diet (0.06% Ca and 0.08 phosphorous). Approximately 3-6 weeks after surgery, rats were bled to screen serum PTH levels and rats with PTH levels between 100-500 pg/ml were selected for the study.
There was a pre-bleed (T=0) and each group was dosed daily for seven days by oral […] with either the compound of Formula (I) (0.1 μg/kg/day), vehicle control or 1,25-(OH)2 vitamin D3 positive control. Compounds were predissolved in ethanol and diluted with vehicle (Miglyol 812) followed by evaporation of the ethanol.
After the last day of dosing, the animals were bled again (T=1) and sacrificed. Serum PTH assays were done with Nichols Institute Diagnostic Kit #40-2240. Serum calcium assays were done with Sigma Diagnostic Kit #587 with o-cresophthalein. Serum creatinine assays were done with Sigma Diagnostic Kit #1600-320 with ammonium molybdate.

[3] = test system: women with postmenopausal osteoporosis; details: cited from earlier work

IC50 (MCF-7 cells) [nM] | IC50 (ZR-75 cells) [nM] | Final Ca Levels [2] [mg/dL] | Structure (SMILES) | PTH T=1-T=0 [2] [pg/mL] | other results
0.03 | 0.1 | – | C[C@]12CCC/C(=C\C=C3C[C@@H](O)C[C@H](O)C3)[C@@H]1CC[C@@H]2C1(C/C=C\C(O)(C(F)(F)F)C(F)(F)F)CC1 [compound 6, 1,25-dihydroxy-23-(Z)-ene-26,27-hexafluoro-20,21,28-cyclopropyl-19-norcholecalciferol] | – | –
0.05 | 0.15 | 10.1 | C[C@]12CCC/C(=C\C=C3C[C@@H](O)C[C@H](O)C3)[C@@H]1CC[C@@H]2C1(CC#CC(O)(C(F)(F)F)C(F)(F)F)CC1 [Cpd #4, 1,25-dihydroxy-23-yne-26,27-hexafluoro-20,21,28-cyclopropyl-19-norcholecalciferol] | -137 | Serum Calcium (6th Week) ([1]; 0.005 μg/kg/day by mouth): 8.94 mg/dL; Urine Calcium/Creatinine (6th Week) ([1]; 0.005 μg/kg/day by mouth): 0.60; Whole Femur BMD ([1]; 0.005 μg/kg/day by mouth): 0.241 g/cm²
0.03 | 0.01 | 10.7 | C=C1/C(=C\C=C2/CCC[C@]3(C)[C@@H](C4(CC#CC(O)(C(F)(F)F)C(F)(F)F)CC4)CC[C@@H]23)C[C@@H](O)C[C@@H]1O [Cpd #3, 1,25-dihydroxy-23-yne-26,27-hexafluoro-20,21,28-cyclopropyl-cholecalciferol] | -70 | Serum Calcium (6th Week) ([1]; 0.010 μg/kg/day by mouth): 10.25 mg/dL; Urine Calcium/Creatinine (6th Week) ([1]; 0.010 μg/kg/day by mouth): 0.83; Whole Femur BMD ([1]; 0.010 μg/kg/day by mouth): 0.24 g/cm²
0.3 | 0.9 | – | CC(C)(O)C#CCC1([C@H]2CC[C@H]3/C(=C/C=C4C[C@@H](O)C[C@H](O)C4)CCC[C@]23C)CC1 [compound 2, 1,25-dihydroxy-23-yne-20,21,28-cyclopropyl-19-nor-cholecalciferol] | – | –
0.5 | – | – | C=C1/C(=C\C=C2/CCC[C@]3(C)[C@@H](C4(CC#CC(C)(C)O)CC4)CC[C@@H]23)C[C@@H](O)C[C@@H]1O [compound 1, 1,25-dihydroxy-23-yne-20,21,28-cyclopropyl-cholecalciferol] | – | –
0.03 | 0.1 | – | C=C1/C(=C\C=C2/CCC[C@]3(C)[C@@H](C4(C/C=C\C(O)(C(F)(F)F)C(F)(F)F)CC4)CC[C@@H]23)C[C@@H](O)C[C@@H]1O [compound 5, 1,25-dihydroxy-23-(Z)-ene-26,27-hexafluoro-20,21,28-cyclopropyl-cholecalciferol] | – | –

Structure (SMILES) | IC50 (MCF-7 cells) [nM] | IC50 (ZR-75 cells) [nM] | Final Ca Levels [2] [mg/dL] | PTH T=1-T=0 [2] [pg/mL] | other results
C=C1/C(=C\C=C2/CCC[C@]3(C)[C@@H]([C@H](C)CCCC(C)(C)O)CC[C@@H]23)C[C@@H](O)C[C@@H]1O [1,25-di(OH)-cholecalciferol, 1,25-dihydroxy-cholecalciferol, reference compound] | 149 | 13 | 9.75 | -18 | Serum Calcium (6th Week) ([1]; 0.200 μg/kg/day by mouth, listed as Vit D): 9.49 mg/dL and 10.65 mg/dL; lower rate of new vertebral fractures compared with elemental calcium 1000 mg/day ([3]; mild to moderate postmenopausal osteoporosis, 0.25 microgram twice daily, after 3 years): 3 fold; tolerability ([3]; overall): well tolerated; steroid-induced bone loss ([3]; patients starting prednisone or prednisolone, 0.5 to 1.0 micrograms/day plus calcium 1000 mg/day, with or without calcitonin): prevented steroid-induced bone loss
